The test deals with factor B (Homo sapiens, UniProt P00751). Nature of the test: factor B inhibition assay of Biological Example 1. The class given is biochemical. Also on record: CVF-Bb complex prepared from purified cobra venom factor (1 μM), recombinant human complement factor B; made in house; host or cells: drosophila cells (factor B); E. coli (factor D used to form the complex). To be noted: IC50 (nM), assay of Biological Example 1 (Table 1).

This is an account of results in patent US9056874B2, “Complement pathway modulators and uses thereof” (NOVARTIS AG, priority 2012, dated 2015).

factor B, sequence (P00751 260-764 limits assumed): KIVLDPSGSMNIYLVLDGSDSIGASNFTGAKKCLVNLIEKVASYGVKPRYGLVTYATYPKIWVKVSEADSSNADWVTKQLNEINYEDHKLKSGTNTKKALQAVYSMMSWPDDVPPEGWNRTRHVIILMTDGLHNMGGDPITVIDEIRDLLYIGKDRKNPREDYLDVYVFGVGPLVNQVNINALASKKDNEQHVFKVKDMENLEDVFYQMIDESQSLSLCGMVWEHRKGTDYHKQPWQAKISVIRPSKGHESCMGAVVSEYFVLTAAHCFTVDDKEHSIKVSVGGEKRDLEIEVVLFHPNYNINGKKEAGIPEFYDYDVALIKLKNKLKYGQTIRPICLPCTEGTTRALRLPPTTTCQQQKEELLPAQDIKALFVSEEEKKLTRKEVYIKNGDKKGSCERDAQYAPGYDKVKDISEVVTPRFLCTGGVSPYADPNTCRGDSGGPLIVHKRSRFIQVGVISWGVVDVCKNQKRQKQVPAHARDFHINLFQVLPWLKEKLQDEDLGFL
factor B, sequence (Q91132 23-649 partner limits assumed): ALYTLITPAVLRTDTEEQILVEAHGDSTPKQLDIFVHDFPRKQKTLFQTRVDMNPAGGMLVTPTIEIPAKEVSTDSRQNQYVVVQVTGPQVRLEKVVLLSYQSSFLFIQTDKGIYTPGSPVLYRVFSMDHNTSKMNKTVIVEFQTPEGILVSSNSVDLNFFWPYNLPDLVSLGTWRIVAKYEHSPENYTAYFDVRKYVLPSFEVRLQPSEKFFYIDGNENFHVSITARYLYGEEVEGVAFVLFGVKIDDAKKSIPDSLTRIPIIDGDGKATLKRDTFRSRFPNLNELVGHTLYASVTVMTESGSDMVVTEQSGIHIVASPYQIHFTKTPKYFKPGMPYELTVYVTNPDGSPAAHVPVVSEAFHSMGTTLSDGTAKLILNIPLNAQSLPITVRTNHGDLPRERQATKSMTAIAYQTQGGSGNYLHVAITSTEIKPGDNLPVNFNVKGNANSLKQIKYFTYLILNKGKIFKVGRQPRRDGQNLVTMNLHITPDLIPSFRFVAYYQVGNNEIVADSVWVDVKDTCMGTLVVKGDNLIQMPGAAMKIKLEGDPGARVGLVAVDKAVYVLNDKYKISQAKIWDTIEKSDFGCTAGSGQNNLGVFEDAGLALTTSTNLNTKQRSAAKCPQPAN
factor B, sequence (Q91132 733-984 partner limits assumed): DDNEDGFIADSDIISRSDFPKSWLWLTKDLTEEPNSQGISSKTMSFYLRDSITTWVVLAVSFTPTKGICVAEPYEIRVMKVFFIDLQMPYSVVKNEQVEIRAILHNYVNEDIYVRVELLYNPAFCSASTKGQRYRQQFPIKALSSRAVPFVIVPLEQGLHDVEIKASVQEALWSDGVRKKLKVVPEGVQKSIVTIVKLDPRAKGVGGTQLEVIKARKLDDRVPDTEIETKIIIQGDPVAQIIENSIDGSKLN
factor B, sequence (Q91132 1264-1642 partner limits assumed): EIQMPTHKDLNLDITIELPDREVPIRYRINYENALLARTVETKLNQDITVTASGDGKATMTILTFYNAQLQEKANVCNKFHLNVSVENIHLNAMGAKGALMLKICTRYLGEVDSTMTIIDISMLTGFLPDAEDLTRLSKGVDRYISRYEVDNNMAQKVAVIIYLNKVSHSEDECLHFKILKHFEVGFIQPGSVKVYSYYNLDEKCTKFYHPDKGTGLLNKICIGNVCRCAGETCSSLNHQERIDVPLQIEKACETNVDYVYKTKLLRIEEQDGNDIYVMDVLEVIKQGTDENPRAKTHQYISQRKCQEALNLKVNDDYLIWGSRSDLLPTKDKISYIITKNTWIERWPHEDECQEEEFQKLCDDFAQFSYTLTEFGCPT

In the case of `CNC(c1nc2cc(C#N)ccc2[nH]1)(c1c(Br)cc(C)c2[nH]ccc12)C(F)(F)F` (single isomer, unassigned; (-)) [106 b) (−), (−)-2-(1-(5-bromo-7-methyl-1H-indol-4-yl)-2,2,2-trifluoro-1-(methylamino)ethyl)-1H-benzo[d]imidazole-5-carbonitrile], the IC50 worked out at 8 nM.
As for `CCc1cc(C)c2[nH]ccc2c1C(NC)(c1nc2cc(C#N)ccc2[nH]1)C(F)(F)F` (single isomer, unassigned; (-)) [107-B b) (−), (−)-2-(1-(5-ethyl-7-methyl-1H-indol-4-yl)-2,2,2-trifluoro-1-(methylamino)ethyl)-1H-benzo[d]imidazole-5-carbonitrile], the half-maximal inhibitory concentration (IC50) was 3 nM.
In the case of `CCc1cc(C)c2[nH]ccc2c1C(N)(c1nc2cc(C#N)ccc2[nH]1)C(F)(F)F` (single isomer, unassigned; (-)) [107-C b) (−), (−)-2-(1-amino-1-(5-ethyl-7-methyl-1H-indol-4-yl)-2,2,2-trifluoroethyl)-1H-benzo[d]imidazole-5-carbonitrile] it was 30 nM.
Next, `Cc1cc(C2CC2)c(C(N)(c2nc3cc(C#N)ccc3[nH]2)C(F)(F)F)c2cc[nH]c12` (single isomer, unassigned; (-)) [107-D b) (−), (−)-2-(1-amino-1-(5-cyclopropyl-7-methyl-1H-indol-4-yl)-2,2,2-trifluoroethyl)-1H-benzo[d]imidazole-5-carbonitrile]: 8 nM; `CNC(c1nc2cc(C#N)ccc2[nH]1)(c1c(C2CC2)cc(C)c2[nH]ccc12)C(F)(F)F` (single isomer, unassigned; (-)) [107-E b) (−), (−)-2-(1-(5-cyclopropyl-7-methyl-1H-indol-4-yl)-2,2,2-trifluoro-1-(methylamino)ethyl)-1H-benzo[d]imidazole-5-carbonitrile]: 3 nM.
In the case of `COc1cc(C)c2c(c1C(C)(OC)c1nc3cc(C#N)ccc3[nH]1)CCN2` (single isomer, unassigned; (-)) [124 b) (−), (−)-2-(1-methoxy-1-(5-methoxy-7-methylindolin-4-yl)ethyl)-1H-benzo[d]imidazole-5-carbonitrile] it was 11 nM; in that of `COc1cc(C)c2[nH]ccc2c1C(O)c1nc2cc(C#N)ccc2o1` (single isomer, unassigned; (-)) [125-B b) (−), (−)-2-(hydroxy(5-methoxy-7-methyl-1H-indol-4-yl)methyl)benzo[d]oxazole-5-carbonitrile], 3 nM; in that of `COc1cc(C)c2[nH]ccc2c1C(O)(c1nc2cc(C#N)ccc2o1)C(F)(F)F` (single isomer, unassigned; (-)) [128-B b) (−), (−)-2-(2,2,2-trifluoro-1-hydroxy-1-(5-methoxy-7-methyl-1H-indol-4-yl)ethyl)benzo[d]oxazole-5-carbonitrile], 3 nM.
For the compound `COc1cc(C)c2[nH]ccc2c1C(C)(N)c1nc2cc(C#N)ccc2o1` (single isomer, unassigned; (-)) [131-B b) (−), (−)-2-(1-amino-1-(5-methoxy-7-methyl-1H-indol-4-yl)ethyl)benzo[d]oxazole-5-carbonitrile], the IC50 was 52 nM.
With `CCc1cc(C)c2[nH]cc(C#N)c2c1C(OC)c1nc2cc(C#N)ccc2[nH]1` (single isomer, unassigned; (-)) [Example 91, (−)-2-((3-Cyano-5-ethyl-7-methyl-1H-indol-4-yl)(methoxy)methyl)-1H-benzo[d]imidazole-5-carbonitrile], the IC50 stood at 420 nM.
In the case of `Cc1cc(C)c2[nH]ccc2c1C(O)(c1nc2cc(C#N)ccc2[nH]1)C1CC1` (centres unmarked) [79-H a)] it was 110 nM; in that of `Cc1cc(C(C)C)c(C(C)(N)c2nc3cc(C#N)ccc3[nH]2)c2cc[nH]c12` (centres unmarked) [102-E a)], 60 nM; in that of `COc1cc(C)c2[nH]ccc2c1Cc1nc2cc(C#N)ccc2[nH]1` [Example 20-C, 2-((5-Methoxy-7-methyl-1H-indol-4-yl)methyl)-1H-benzo[d]imidazole-5-carbonitrile], 60 nM.
In the case of `[2H]C([2H])([2H])Oc1cc(C)c2[nH]ccc2c1Cc1nc2cc(C#N)ccc2[nH]1` [Example 20-D] it was 80 nM; in that of `Cc1cc(OC(C)C)c(Cc2nc3cc(C#N)ccc3[nH]2)c2cc[nH]c12` [Example 20-E], 670 nM.
Next, `COCCOc1cc(C)c2[nH]ccc2c1Cc1nc2cc(C#N)ccc2[nH]1` [Example 20-F]: 5570 nM; `COc1cc(C)c2[nH]ccc2c1Cc1nc2cc(C#N)ccc2o1` [Example 20-G]: 120 nM; `COc1cc(C)c2[nH]ccc2c1Cc1nc2ccc(C#N)cc2o1` [Example 20-H]: 4370 nM.
Turning to `COc1cc(F)c2[nH]ccc2c1Cc1nc2cc(C#N)ccc2[nH]1` [Example 21-B, 2-((7-Fluoro-5-methoxy-1H-indol-4-yl)methyl)-1H-benzo[d]imidazole-5-carbonitrile], the IC50 came to 3140 nM.
In the case of `[2H]C([2H])([2H])Oc1cc(Cl)c2[nH]ccc2c1Cc1nc2cc(C#N)ccc2[nH]1` [Example 22, 2-((7-Chloro-5-(^2H3)methoxy-1H-indol-4-yl)methyl)-1H-benzo[d]imidazole-5-carbonitrile] it was 1140 nM; in that of `[2H]C([2H])([2H])Oc1cc(Cl)c2[nH]ccc2c1C(O)c1nc2cc(C#N)ccc2[nH]1` (centres unmarked) [Example 24-E], 1110 nM; in that of `COc1cc(C)c2[nH]ccc2c1C(=O)c1nc2cc(C#N)ccc2[nH]1` [Example 25-B, 2-(5-Methoxy-7-methyl-1H-indole-4-carbonyl)-1H-benzo[d]imidazole-5-carbonitrile], 810 nM.
In the case of `COC(C)(c1nc2cc(C#N)ccc2[nH]1)c1c(OC(C)C)cc(C)c2[nH]ccc12` (centres unmarked) [Example 27-C] it was 90 nM; in that of `COc1cc(C)c2[nH]ccc2c1C(OC)(c1nc2cc(C#N)ccc2[nH]1)C1CC1` (centres unmarked) [Example 27-D], 20 nM; in that of `Cc1cc(OC(C)C)c(C(O)(c2nc3cc(C#N)ccc3[nH]2)C(F)(F)F)c2cc[nH]c12` (centres unmarked) [Example 33-D], 310 nM.
In the case of `Cc1cc(C)c2[nH]ccc2c1Cc1nc2cc(C#N)ccc2[nH]1` [Example 58-C, 2-((5,7-Dimethyl-1H-indol-4-yl)methyl)-1H-benzo[d]imidazole-5-carbonitrile] it was 200 nM.
Turning to `Cc1cc(CO)c(Cc2nc3cc(C#N)ccc3[nH]2)c2cc[nH]c12` [Example 59-C, 2-((5-(Hydroxymethyl)-7-methyl-1H-indol-4-yl)methyl)-1H-benzo[d]imidazole-5-carbonitrile], the IC50 was 1760 nM.
Consider `Cc1cc(CN)c(Cc2nc3cc(C#N)ccc3[nH]2)c2cc[nH]c12` [Example 60-B, 2-((5-(Aminomethyl)-7-methyl-1H-indol-4-yl)methyl)-1H-benzo[d]imidazole-5-carbonitrile], for which the IC50 amounted to 5780 nM.
Next, `CC(=O)NCc1cc(C)c2[nH]ccc2c1Cc1nc2cc(C#N)ccc2[nH]1` [Example 61, N-((4-((5-cyano-1H-benzo[d]imidazol-2-yl)methyl)-7-methyl-1H-indol-5-yl)methyl)acetamide]: 6620 nM; `Cc1cc(C)c2[nH]ccc2c1Cc1nc2cc(C#N)cc(F)c2[nH]1` [Example 62-B, 2-((5,7-Dimethyl-1H-indol-4-yl)methyl)-7-fluoro-1H-benzo[d]imidazole-5-carbonitrile]: 7610 nM; `CCc1cc(C)c2[nH]ccc2c1Cc1nc2cc(C#N)ccc2[nH]1` [Example 63-A]: 160 nM.
Turning to `Cc1cc(Cl)c(Cc2nc3cc(C#N)ccc3[nH]2)c2cc[nH]c12` [Example 63-B], the IC50 was 260 nM.
In the case of `C=Cc1cc(C)c2[nH]ccc2c1Cc1nc2cc(C#N)ccc2[nH]1` [Example 63-C] it was 90 nM; in that of `COCc1cc(C)c2[nH]ccc2c1Cc1nc2cc(C#N)ccc2[nH]1` [Example 63-D], 1100 nM.
In the case of `Cc1cc(C)c2[nH]ccc2c1Cc1nc2c(C)c(C#N)ccc2[nH]1` [Example 63-E] it was 320 nM; in that of `Cc1cc(C)c2[nH]ccc2c1Cc1nc2cc(C#N)cc(C)c2[nH]1` [Example 63-F], more than 100000 nM.
In the case of `Cc1cc(C)c2[nH]ccc2c1Cc1nc2cc(C#N)c(F)cc2[nH]1` [Example 63-G] it was 5550 nM.
In the case of `Cc1cc(C)c2[nH]ccc2c1Cc1nc2cc(C#N)c(Cl)cc2[nH]1` [Example 63-I], the IC50 worked out at 72600 nM.
Next, `COc1cc2[nH]c(Cc3c(C)cc(C)c4[nH]ccc34)nc2cc1C#N` [Example 63-J]: 83200 nM; `Cc1cc(C2CC2)c(C(O)c2nc3cc(C#N)ccc3[nH]2)c2cc[nH]c12` (centres unmarked) [Example 67-B]: 260 nM.
Turning to `Cc1cc(Br)c(C(O)c2nc3cc(C#N)ccc3[nH]2)c2cc[nH]c12` (centres unmarked) [Example 67-F], the IC50 came to 2000 nM.
For `Cc1cc(C2CC2)c(C(O)c2nc3cc(C#N)c(F)cc3[nH]2)c2cc[nH]c12` (centres unmarked) [Example 67-H], the IC50 was found to be 1930 nM.
Turning to `CCc1cc(C)c2[nH]ccc2c1C(=O)c1nc2cc(C#N)ccc2[nH]1` [Example 78, 2-(5-Ethyl-7-methyl-1H-indole-4-carbonyl)-1H-benzo[d]imidazole-5-carbonitrile], the IC50 was 640 nM.
Consider `CCC(O)(c1nc2cc(C#N)ccc2[nH]1)c1c(C)cc(C)c2[nH]ccc12` (centres unmarked) [Example 79-G], for which the IC50 is 190 nM.
`Cc1cc(C)c2[nH]ccc2c1C(O)(c1ccccc1)c1nc2cc(C#N)ccc2[nH]1` (centres unmarked) [Example 79-I]: the IC50 worked out at 660 nM.
In the case of `Cc1cc(C)c2[nH]cc(Br)c2c1Cc1nc2cc(C#N)ccc2[nH]1` [Example 85, 2-((3-bromo-5,7-dimethyl-1H-indol-4-yl)methyl)-1H-benzo[d]imidazole-5-carbonitrile] it was 220 nM.
Take `Cc1cc(C)c2[nH]cc(Cl)c2c1Cc1nc2cc(C#N)ccc2[nH]1` [Example 86, 2-((3-Chloro-5,7-dimethyl-1H-indol-4-yl)methyl)-1H-benzo[d]imidazole-5-carbonitrile]: the IC50 stood at 270 nM.

In general, IC50 refers to the concentration that gives 50% inhibition.
